Experimental data published in paper PMC4977651, “Molecular features of biguanides required for targeting of mitochondrial respiratory complex I and activation of AMP-kinase” (BMC Biology, 2016).
Read-outs that look alike come from different tables or passages of the source.

Experiments:
[1] = target: bovine heart mitochondrial membranes (complex I) (Bos taurus, UniProt P03887+P03898+P17694+P42026); test: NADH:O2 oxidoreduction by bovine heart mitochondrial membranes (complexes I-III-IV); type: biochemical
Chain of bovine heart mitochondrial membranes (complex I) (P42026 38-216): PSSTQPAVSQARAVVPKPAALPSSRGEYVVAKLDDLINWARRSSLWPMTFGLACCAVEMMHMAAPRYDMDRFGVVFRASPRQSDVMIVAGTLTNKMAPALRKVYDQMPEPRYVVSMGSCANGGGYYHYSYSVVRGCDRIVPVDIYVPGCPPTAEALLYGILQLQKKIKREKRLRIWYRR
Chain of bovine heart mitochondrial membranes (complex I) (P17694 34-463): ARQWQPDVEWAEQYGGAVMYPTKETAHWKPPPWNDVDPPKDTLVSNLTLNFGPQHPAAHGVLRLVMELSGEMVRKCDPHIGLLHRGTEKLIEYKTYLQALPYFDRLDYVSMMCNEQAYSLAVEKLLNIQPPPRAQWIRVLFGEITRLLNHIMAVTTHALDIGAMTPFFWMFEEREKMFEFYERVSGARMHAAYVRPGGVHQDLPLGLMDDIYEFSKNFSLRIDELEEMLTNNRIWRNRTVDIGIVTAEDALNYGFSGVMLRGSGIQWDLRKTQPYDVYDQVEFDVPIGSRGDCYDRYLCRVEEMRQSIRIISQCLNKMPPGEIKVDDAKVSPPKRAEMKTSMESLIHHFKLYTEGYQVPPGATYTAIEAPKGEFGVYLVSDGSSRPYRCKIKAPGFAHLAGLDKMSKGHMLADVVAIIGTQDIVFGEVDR
Chain of bovine heart mitochondrial membranes (complex I) (P03887 whole entry): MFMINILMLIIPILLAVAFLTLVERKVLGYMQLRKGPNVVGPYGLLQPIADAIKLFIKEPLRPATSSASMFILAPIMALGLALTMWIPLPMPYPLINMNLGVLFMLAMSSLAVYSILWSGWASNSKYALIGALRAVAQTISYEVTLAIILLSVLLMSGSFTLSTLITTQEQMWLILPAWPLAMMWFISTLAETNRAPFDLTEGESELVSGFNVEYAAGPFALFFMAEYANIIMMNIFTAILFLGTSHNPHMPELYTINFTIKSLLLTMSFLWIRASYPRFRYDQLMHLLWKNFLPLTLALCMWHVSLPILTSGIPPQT
Chain of bovine heart mitochondrial membranes (complex I) (P03898 whole entry): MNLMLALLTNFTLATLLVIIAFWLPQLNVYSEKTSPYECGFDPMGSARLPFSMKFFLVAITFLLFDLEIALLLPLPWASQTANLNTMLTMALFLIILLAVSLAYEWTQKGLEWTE
Method: (§1) Complex I and mitochondrial membranes were prepared from Bos taurus (bovine) heart. Intact mitochondria were isolated from rat liver and mouse heart and liver. Membranes were prepared from mouse heart mitochondria by 5 s bursts of sonication at 4 °C and collected by centrifugation (75,000 × g, 1 h).
(§2) Assays were performed at 32 °C in a SpectraMax 96-well plate reader. NADH:decylubiquinone oxidoreduction by complex I at 0.5 μg mL^−1 was measured in 20 mM Tris-HCl (pH 7.2), 0.15 % soy bean asolectin (Avanti Polar Lipids), and 0.15 % 3-((3-cholamidopropyl)dimethylammonium)-1-propanesulfonate (CHAPS, Merck Chemicals Ltd), with 200 μM decylubiquinone and 200 μM NADH, and monitored using ε340–380(NADH) = 4.81 mM^−1 cm^−1 [23]. Catalysis was initiated by addition of NADH and maximal rates determined by linear regression. NADH:O2 oxidoreduction by membranes was measured similarly but using 5 μg mL^−1 membranes in 10 mM Tris-HCl (pH 7.4) and 250 mM sucrose using 200 μM NADH and supplemented with 0.15 mM horse heart cytochrome c (Sigma-Aldrich Ltd.). Succinate:O2 oxidoreduction was measured using 40 μg mL^−1 membranes in 5 mM succinate in 10 mM Tris-HCl (pH 7.4) as described previously. Control experiments included NaCl (to match the ionic strength) or DMSO, as appropriate.
(§3) Experimental values are reported as mean averages ± standard deviation (SD) of technical replicates for large sample sizes and mean averages ± standard error of the mean (SEM) of technical replicates for small sample sizes. Data were analyzed by the unpaired two-tailed Student’s t test. IC50 values were determined using the standard dose-effect relationship (activity (%) = 100 × IC50 / (IC50 + [inhibitor]^m) with the Hill Slope (m) set to unity for purified complex I) and are reported with 95 % confidence intervals.

[2] = target: mouse heart mitochondrial membranes (complex I) (Mus musculus, UniProt P03888+P03899+Q91WD5+Q9DC70); test: NADH:O2 oxidoreduction by mouse heart mitochondrial membranes; type: biochemical; conditions: for remaining activity at 130 µM: inhibitor 0.13 mM; for remaining activity at 250 µM: inhibitor 0.25 mM; for remaining activity at 500 µM: inhibitor 0.50 mM; for remaining activity at 1000 µM: inhibitor 1.00 mM; for remaining activity at 5000 µM: inhibitor 5.00 mM; for remaining activity at 10000 µM: inhibitor 10.00 mM; for LogIC50 (best fit value): log of IC50 in mM
Chain of mouse heart mitochondrial membranes (complex I) (P03899 whole entry): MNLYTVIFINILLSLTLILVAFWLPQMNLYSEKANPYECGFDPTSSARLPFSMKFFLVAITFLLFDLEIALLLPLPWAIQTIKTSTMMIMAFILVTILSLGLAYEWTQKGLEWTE
Chain of mouse heart mitochondrial membranes (complex I) (P03888 whole entry): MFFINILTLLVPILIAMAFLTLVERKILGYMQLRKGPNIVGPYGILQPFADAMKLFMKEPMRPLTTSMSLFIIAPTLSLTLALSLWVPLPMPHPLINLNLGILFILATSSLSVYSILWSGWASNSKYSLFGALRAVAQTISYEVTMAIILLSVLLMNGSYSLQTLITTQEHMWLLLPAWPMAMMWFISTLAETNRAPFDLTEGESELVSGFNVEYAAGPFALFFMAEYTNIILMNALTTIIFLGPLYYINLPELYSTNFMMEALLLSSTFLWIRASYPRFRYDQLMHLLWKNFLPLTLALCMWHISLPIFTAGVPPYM
Chain of mouse heart mitochondrial membranes (complex I) (Q9DC70 36-224): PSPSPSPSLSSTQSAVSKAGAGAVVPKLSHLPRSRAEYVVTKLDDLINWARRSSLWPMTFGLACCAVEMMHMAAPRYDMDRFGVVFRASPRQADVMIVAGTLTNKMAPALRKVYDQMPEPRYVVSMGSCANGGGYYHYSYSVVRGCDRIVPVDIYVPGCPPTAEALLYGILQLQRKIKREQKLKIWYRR
Chain of mouse heart mitochondrial membranes (complex I) (Q91WD5 34-463): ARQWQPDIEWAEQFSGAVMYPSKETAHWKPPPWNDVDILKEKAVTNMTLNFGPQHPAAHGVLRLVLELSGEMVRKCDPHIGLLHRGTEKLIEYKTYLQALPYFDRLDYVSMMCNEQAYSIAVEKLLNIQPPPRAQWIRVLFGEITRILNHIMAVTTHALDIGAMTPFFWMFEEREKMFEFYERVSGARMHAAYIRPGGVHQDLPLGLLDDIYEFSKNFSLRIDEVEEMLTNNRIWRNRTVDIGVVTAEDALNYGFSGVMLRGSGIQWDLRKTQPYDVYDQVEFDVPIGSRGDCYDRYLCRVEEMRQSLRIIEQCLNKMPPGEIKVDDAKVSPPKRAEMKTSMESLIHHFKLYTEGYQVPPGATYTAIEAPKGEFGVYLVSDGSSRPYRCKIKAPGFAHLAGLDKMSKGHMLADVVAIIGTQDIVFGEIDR
Method: as §1, §2, §3

HepG2 cells = test: Rotenone-sensitive oxygen consumption rate in intact HepG2 cells; type: cell-based, human; conditions: for rotenone sensitive OCR after 6 hours of biguanide exposure, % control, average / rotenone sensitive OCR after 6 hours of biguanide exposure, average: HEPG2 cells, biguanide at IC50/10; for rotenone sensitive OCR after 6 hours of biguanide exposure, average: OCR normalized to OCR immediately prior to biguanide addition
Method: 143B (CRL-8303 from ATCC), HepG2 (85011430 from The Health Protection Agency), and MDBK (CCL-22 from ATCC) cells were grown on Dulbecco’s modified Eagle’s medium (DMEM) supplemented with 10 % fetal bovine serum (FBS, Thermo Fisher Scientific) at 37 °C in 5 % CO2. All cells were confirmed as negative for mycoplasma.
Oxygen consumption rates (OCRs) were measured using a Seahorse XF96 extracellular flux analyzer at 37 °C. For intact cell measurements, 1.4 × 10^4 143B, HepG2, or MDBK cells were plated (per well) in DMEM containing 10 % FBS into Seahorse Bioscience Inc. XF96 plates and incubated for ~12 h at 37 °C in 5 % CO2. Then, the medium was exchanged for assay buffer containing DMEM, 4.5 g L^−1 glucose, 1 mM pyruvate, 32 mM NaCl, 2 mM GlutaMAX, 15 mg L^−1 phenol red, and 20 mM HEPES (pH 7.4 at 37 °C) and the cells placed in a CO2-free incubator at 37 °C for 30 min. Basal oxygen consumption rates were established before the addition of biguanides at one-tenth of their IC50 (IC50/10), and followed for ~ 6 h before the addition of rotenone (2 μM).
Rotenone-sensitive OCRs were calculated by subtracting the rotenone-insensitive rates (determined at the end of the experiment). OCRs were normalized by dividing by the OCR recorded immediately prior to the addition of biguanide. For rate of uptake calculations, the OCRs at time points after biguanide addition were divided by the OCRs at the same time points in control experiments. Data from wells with failed port injections were excluded from the analyses. The respiratory control ratio (RCR) values (state III versus state IV respiration) were ~11 and ~6 for permeabilized MDBK and 143B cells, respectively.

AMPK-α (phospho-Thr172) = test: AMPK activation, western blot of phospho-AMPK-α in MDBK cells; type: cell-based, Bos taurus; conditions: for p-alpha, average normalised to control: Averages of experiments 1-3, 18 hours; for p-alpha: band intensity
Method: MDBK cells were seeded at 1 × 10^6 cells per 6 cm dish in DMEM containing 10 % FBS. […] After 18 h cells were harvested by a rapid lysis procedure: cells were rinsed with PBS, then lysed using ice-cold buffer containing 50 mM HEPES, 1 mM EDTA, 10 % glycerol, 50 mM NaF, 5 mM sodium pyrophosphate, 1 % Triton-X100, 1 mM dithiothreitol (DTT), and a protease inhibitor cocktail (Roche). The cell lysate was centrifuged at 14,000 × g for 20 min at 4 °C and the protein concentration of the supernatant determined by bicinchoninic acid assay. The lysate was analyzed using Novex 3–12 % bis-Tris gels run in 3-(N-morpholino)propanesulfonic acid (MOPS) buffer (20 μg of protein per lane) followed by transfer to low fluorescence polyvinylidene fluoride membranes by wet transfer. Primary rabbit antibodies for AMPK-β (57C12), AMPK-α (phospho-Thr172) (40H9), and acetyl-coA carboxylase (phospho-Ser79) (Cell Signaling Technology) were incubated overnight with the membrane (1:1000 dilution) in Odyssey blocking buffer at 4 °C. A fluorescent secondary antibody was used (IRDYE800CW from LI-COR Biosciences, 1:20,000 dilution) with a LI-COR Odyssey imaging system.

[3] = read-out: average % (rate, % of no-inhibitor control)

Compound `NC(N)=NC(N)=NCc1ccccc1` [compound 3, 2-benzyl-1-(diaminomethylidene)guanidine] has a remaining activity at 50 µM ([1]; bovine heart mitochondrial membranes, inhibitor 0.05 mM, read-out: average % (rate, % of no-inhibitor control)) of 88.7%, a remaining activity at 120 µM ([1]; bovine heart mitochondrial membranes, inhibitor 0.12 mM, read-out: average % (rate, % of no-inhibitor control)) of 76.2% and a remaining activity at 250 µM ([1]; bovine heart mitochondrial membranes, inhibitor 0.25 mM, read-out: average % (rate, % of no-inhibitor control)) of 69.2%. The remaining activity at 500 µM ([1]; bovine heart mitochondrial membranes, inhibitor 0.50 mM, read-out: average % (rate, % of no-inhibitor control)) was 55.6%, the remaining activity at 1250 µM ([1]; bovine heart mitochondrial membranes, inhibitor 1.25 mM, read-out: average % (rate, % of no-inhibitor control)) was 44.4% and the remaining activity at 2500 µM ([1]; bovine heart mitochondrial membranes, inhibitor 2.50 mM, read-out: average % (rate, % of no-inhibitor control)) was 37.2%. The remaining activity at 5000 µM ([1]; bovine heart mitochondrial membranes, inhibitor 5.00 mM, read-out: average % (rate, % of no-inhibitor control)) was 31.2%, the “LogIC50 (best fit value)” value ([1]; log of concentration in mM, sample given as Bovine heart mitochondrial membranes, Prism variable slope fit, Bottom 0, Top 100) was -0.01339 and the IC50 ([1]; sample given as Bovine heart mitochondrial membranes, Prism log(inhibitor) vs. response variable slope fit (four parameters), Bottom 0, Top 100, read-out: IC50 (best fit value)) was 970 µM. For the same compound, the “HillSlope (best fit value)” value ([1]; sample given as Bovine heart mitochondrial membranes, Prism variable slope fit, Bottom 0, Top 100) was -0.5756, the “HillSlope (best fit value)” value ([2]; Prism variable slope fit) was -1.132 and the IC50 ([2]; Prism variable slope fit, Bottom 0, Top 100, read-out: IC50 (best fit value)) was 3180 µM. It also gave a remaining activity at 130 µM [2, 3] of 99.2%, a remaining activity at 250 µM [2, 3] of 93.8% and a remaining activity at 500 µM [2, 3] of 86.3%. The remaining activity at 1000 µM [2, 3] was 85%, the remaining activity at 5000 µM [2, 3] was 35.4% and the remaining activity at 10000 µM [2, 3] was 25.3%. The “LogIC50 (best fit value)” value ([2]; Prism variable slope fit) was 0.5023, the “rotenone sensitive OCR after 6 hours of biguanide exposure, % control, average” value (HepG2 cells) was 1.26 % control and the “rotenone sensitive OCR after 6 hours of biguanide exposure, average” value (HepG2 cells) was 1.29. The “inhibition of rotenone-sensitive respiration (in words)” value (HepG2 cells; intact HepG2 cells, biguanide at IC50/10, monitored for 6 h) was “inhibit respiration”, the “p-alpha, average normalised to control” value (AMPK-α (phospho-Thr172)) was 10.88 and the “p-alpha / AMPK beta” value (AMPK-α (phospho-Thr172); Experiment 1, 18 hours) was 1.27. For the same compound, the “p-alpha / AMPK beta normalised to control” value (AMPK-α (phospho-Thr172); Experiment 1, 18 hours) was 10.17, the p-alpha (AMPK-α (phospho-Thr172); Experiment 1, 18 hours) was 594 and the “p-alpha / AMPK beta” value (AMPK-α (phospho-Thr172); Experiment 2, 18 hours) was 1.33. The “p-alpha / AMPK beta normalised to control” value (AMPK-α (phospho-Thr172); Experiment 2, 18 hours) was 9.10, the p-alpha (AMPK-α (phospho-Thr172); Experiment 2, 18 hours) was 402 and the “p-alpha / AMPK beta” value (AMPK-α (phospho-Thr172); Experiment 3, 18 hours) was 2.78. The “p-alpha / AMPK beta normalised to control” value (AMPK-α (phospho-Thr172); Experiment 3, 18 hours) was 13.38 and the p-alpha (AMPK-α (phospho-Thr172); Experiment 3, 18 hours) was 628.
With `[H]/N=C(/N)N/C(=N/[H])NCCc1ccccc1` [phenformin, reference compound] the “HillSlope (best fit value)” value ([2]; Prism variable slope fit) was -0.7733, the remaining activity at 130 µM [2, 3] was 80.6% and the remaining activity at 250 µM [2, 3] was 70.4%. The remaining activity at 500 µM [2, 3] was 59.3%, the remaining activity at 1000 µM [2, 3] was 46.6% and the remaining activity at 2000 µM ([2]; inhibitor 2.00 mM, read-out: average % (rate, % of no-inhibitor control)) was 33.2%. The remaining activity at 5000 µM [2, 3] was 18.7%, the remaining activity at 10000 µM [2, 3] was 12.3% and the “LogIC50 (best fit value)” value ([2]; Prism variable slope fit) was -0.09624. The IC50 ([2]; read-out: IC50 (best fit value), Prism variable slope fit, Bottom 0, Top 100) was 801 µM, the “rotenone sensitive OCR after 6 hours of biguanide exposure, % control, average” value (HepG2 cells) was 1.73 % control and the “rotenone sensitive OCR after 6 hours of biguanide exposure, average” value (HepG2 cells) was 1.79. The “AMPK activation (in words)” value (AMPK-α (phospho-Thr172); 18-h treatment, IC50/10 biguanide concentrations) was “slightly lower activation”, the “p-alpha, average normalised to control” value (AMPK-α (phospho-Thr172)) was 3.64 and the “p-alpha / AMPK beta” value (AMPK-α (phospho-Thr172); Experiment 1, 18 hours) was 0.44. The “p-alpha / AMPK beta normalised to control” value (AMPK-α (phospho-Thr172); Experiment 1, 18 hours) was 3.54, the p-alpha (AMPK-α (phospho-Thr172); Experiment 1, 18 hours) was 203 and the “p-alpha / AMPK beta” value (AMPK-α (phospho-Thr172); Experiment 2, 18 hours) was 0.63. The “p-alpha / AMPK beta normalised to control” value (AMPK-α (phospho-Thr172); Experiment 2, 18 hours) was 4.29, the p-alpha (AMPK-α (phospho-Thr172); Experiment 2, 18 hours) was 234 and the “p-alpha / AMPK beta” value (AMPK-α (phospho-Thr172); Experiment 3, 18 hours) was 0.64. For the same compound, the “p-alpha / AMPK beta normalised to control” value (AMPK-α (phospho-Thr172); Experiment 3, 18 hours) was 3.08 and the p-alpha (AMPK-α (phospho-Thr172); Experiment 3, 18 hours) was 154.
